Results from patent US20220218851A1, “COMPOUNDS AND METHODS FOR IMAGING IMMUNE ACTIVITY” (Board of Regents, The University of Texas System, priority 2019, published 2022).
“Also recorded” adds a separate entry of the source. Structures can show the parent of a compound that is named as a salt. Each block holds one molecule with its values, some of them ahead of it.

Key:
[1] = system: neutrophil-like human HL-60 cells; test: [^18F]4FN cellular retention in PMA-activated neutrophil-like HL-60 cells; type: cell-based
Protocol: HL-60 cells were first differentiated to yield “neutrophil-like” cells. Then, in parallel, cell aliquots from each batch were imaged with L-012 (to confirm ROS production by bioluminescence) and incubated with 6.2 kBq of [^18F]4FN. To induce ROS, all cells were incubated with PMA. […] Data were quantified as a ratio of the cell-associated radioactive counts per milligram protein over concentration of radiotracer in the extracellular space, and then normalized to vehicle.

LPS-induced arthritis = test: LPS-induced model of arthritis, PET imaging and L-012 BLI; type: in vivo, mouse
Protocol: Herein, C57BL6/N mice were injected i.a. with LPS, left ankle, or vehicle, right ankle. After 24 hours, mild inflammation of the left ankle was confirmed by visual inspection. 1 hour dynamic PET scans were acquired post i.v. injection of [^18F]4FN. Mice were subsequently imaged for ROS by BLI (L-012). A) 1 hour static [^18F]4FN PET image (left) and BLI (right). B) PET image-derived time-activity curves (TACs) were quantified for the ankles (left, n=4). […] C) H&E staining cross-validated local inflammation (vehicle, left panel; LPS, right panel), utilizing the same mouse as imaged in A. D) Image-based biodistribution was calculated from the dynamic PET/CT data and SUV plotted for various organs over time.
[^18F]4FN PET was employed to image a model of inflammatory arthritis and validate its correlation with L012, a known ROS/RNS bioluminescence sensor.

[2] = Shelf-stability of the formulated radiotracer in PBS (10% EtOH); type: physicochemical
Protocol: (§1) [^18F]4FN was synthesized on the automated module GE TracerLab-FX from precursor 1 in 6.8±2.5% (n=22) activity yield, by means of a copper-mediated radiofluorination of the corresponding Boc-protected pinacol boronic ester, followed by deprotection, purification and reformulation (Scheme 2; Tredwell et al., 2014). [^18F]4FN was obtained in >99% radiochemical purity, 50-140 GBq/μmol and up to 4 h shelf-stability in PBS (10% EtOH). [^18F]4FN was also stable in mouse plasma for at least 1 h.

Nox2 = test: PMA ear inflammation model in Nox2 KO mice, PET/CT imaging; type: in vivo, mouse; settings: Nox2 KO mice (gp91phox-/-), IP, one-hour post administration
Protocol: Balb/c mice were treated with either PMA or vehicle and imaged 24 hr post treatment by PET/CT scan at 1 hr post-injection (IP) of [^18F]4FN (FIG. 1A); photograph 3 hr post [^18F]4FN (FIG. 1i). BLI 10 min post luminol injection (FIG. 1C). Aged-matched, 15-week-old female wild-type […] or Nox2 KO mice (n=3 each) were treated with PMA or vehicle and imaged with [^18F]4FN one-hour post IP administration of radiotracer. PET/CT data were quantified using ROIs surrounding the right and left ears. Contrast-to-noise ratios were calculated for all mice and data were plotted as mean and SEM. […] Radioactive HPLC trace and chemical structure of [^18F]4FN (FIG. 1E).
3 Months old Balb/c female mice or 20-26 week-old female C57B16 mice (Taconic) were topically treated with PMA (Sigma) (400 μM) in ethanol on the right ear or vehicle, ethanol, on the left ear. 24 hrs later, inflammation of the right ear was validated by visual inspection for redness and swelling. Mice were then injected IV (unless noted) with [^18F]FN or [^18F]FNS or [^18F]FNG derivatives as noted and PET/CT images were acquired at times indicated, typically 1 hr post injection. Mice, n=3 for [^18F]FN and [^18F]FNS, were euthanized at 1.5 hr post injection for blood metabolism analysis. […]

[3] = system: PMA-induced ear inflammation; test: PMA ear inflammation model, PET/CT imaging; type: in vivo, mouse; settings: for detection of PMA-inflamed ear versus vehicle ear by PET: about 1 hr post tracer injection ([^18F]FDG from 45 min)
Protocol: 3 Months old Balb/c female mice or 20-26 week-old female C57B16 mice (Taconic) were topically treated with PMA (Sigma) (400 μM) in ethanol on the right ear or vehicle, ethanol, on the left ear. 24 hrs later, inflammation of the right ear was validated by visual inspection for redness and swelling. Mice were then injected IV (unless noted) with [^18F]FN or [^18F]FNS or [^18F]FNG derivatives as noted and PET/CT images were acquired at times indicated, typically 1 hr post injection. Mice, n=3 for [^18F]FN and [^18F]FNS, were euthanized at 1.5 hr post injection for blood metabolism analysis. In one experiment, adult (3 month old Balb/c) were imaged on an in vivo imaging system (IVIS Spectrum, PE; 5 min, binning 16, 25 cm FOV) 10 min post injection of Luminol (200 mg/kg) IP to confirm production of reactive oxygen species. For [^18F]FDG PET imaging experiments, mice were fasted for >4 hr prior to FDG injection. Mice were injected with [^18F]FDG IV under light anesthesia and then allowed to awake, move and drink water at libitum. Cages were kept on a cage warmer during uptake and washout periods. Mice were imaged starting at 45 min post-injection with a 10 min PET/CT scan (Albira, Bruker). In all cases, PET images were acquired for 10 min using a 15 cm FOV; CT images were acquired for fusion using a 7 cm FOV also centered on the object of interest. Image data were decay corrected to injection time (Albira, Bruker) and expressed as % ID/cc or SUV as indicated (PMOD, PMOD Technologies). Actual injected dose was calculated based on measuring the pre- and post-injection activity in the syringe with a dose calibrator on a per mouse basis (Capintec), and mice were individually weighed to calculate individual standardized uptake values. In the context of an acute inflammation model, [^18F]4FN was tested in a pilot experiment in Balb/c mice topically treated with PMA on the right ear or vehicle on the left ear. The treated ear turned red, visually confirming the inflammation site. Mice were injected IP with [^18F]4FN and PET/CT scans were taken at 11 min, 1 h, 2 h and 3 h post injection of tracer (FIG. 5). […] After 1 h, the inflamed ear was clearly visualized (>2% ID/cc). […] Production of reactive oxygen species in the inflamed ear was confirmed by BLI with luminol after PET imaging (FIG. 5) (Gross et al., 2009). This indicated the dependence of the signal on induced inflammation.

[4] = In vivo mouse blood and urine metabolism by radio-HPLC
Protocol: 3 Months old Balb/c female mice or 20-26 week-old female C57B16 mice (Taconic) were topically treated with PMA (Sigma) (400 μM) in ethanol on the right ear or vehicle, ethanol, on the left ear. 24 hrs later, inflammation of the right ear was validated by visual inspection for redness and swelling. Mice were then injected IV (unless noted) with [^18F]FN or [^18F]FNS or [^18F]FNG derivatives as noted and PET/CT images were acquired at times indicated, typically 1 hr post injection. Mice, n=3 for [^18F]FN and [^18F]FNS, were euthanized at 1.5 hr post injection for blood metabolism analysis. In one experiment, adult (3 month old Balb/c) were imaged on an in vivo imaging system (IVIS Spectrum, PE; 5 min, binning 16, 25 cm FOV) 10 min post injection of Luminol (200 mg/kg) IP to confirm production of reactive oxygen species. For [^18F]FDG PET imaging experiments, mice were fasted for >4 hr prior to FDG injection. Mice were injected with [^18F]FDG IV under light anesthesia and then allowed to awake, move and drink water at libitum. Cages were kept on a cage warmer during uptake and washout periods. Mice were imaged starting at 45 min post-injection with a 10 min PET/CT scan (Albira, Bruker).
In vivo mouse blood metabolism was also performed. Blood was drawn from inflamed, non-inflamed and MPO knock-out mice at 5 min and 1.5 h post injection, processed and analyzed by analytical radio-HPLC. […] While 4-fluoronaphthol metabolism has not been studied, naphthol metabolism is well documented in the literature: the molecule is reported to be quickly transformed into glucuronic and sulfuric esters, and this pathway is conserved from flies to man (Narukawa et al., 2004 and Terriere et al., 1961). […] To test this hypothesis, [^18F]4FN was transformed enzymatically with glucuronosyltransferase and sulfonyl transferase into the corresponding glucuronide and sulfate derivatives (Scheme 3), respectively, and the products analyzed by radio-HPLC.

[5] = Stability in mouse plasma; type: in vitro ADME
Protocol: as §1

4T1 tumor = 4T1 tumor PET imaging; type: in vivo, mouse; settings: immunocompetent Balb/C mice, 1 h after injection
Protocol: 4T1 murine breast cancer cells were cultured and passaged per ATCC guidelines and utilized prior to 20 passages. 10,000 4T1 cells were injected subcutaneously into the right flank of 6-8 week old Balb/c mice. Tumors grew for 3 weeks prior to imaging. In all cases, PET images were acquired for 10 min using a 15 cm FOV; CT images were acquired for fusion using a 7 cm FOV also centered on the object of interest. Image data were decay corrected to injection time (Albira, Bruker) and expressed as % ID/cc or SUV as indicated (PMOD, PMOD Technologies). Actual injected dose was calculated based on measuring the pre- and post-injection activity in the syringe with a dose calibrator on a per mouse basis (Capintec), and mice were individually weighed to calculate individual standardized uptake values. [^18F]4FNS PET has been employed to visualize 4T1 tumors in immunocompetent Balb/C mice. 4T1 is a reliable murine model for triple negative breast cancer and, in its early proliferative stage, is believed to be heavily infiltrated by immune cells, particularly active neutrophils and myeloid derived suppressor cells (MDSCs; Wang et al., 2017 and Bunt et al., 2006).

SMILES: c1ccc2c(c1)[I+]c1ccccc1-2 [DPI, reference compound]
blocking of PMA-induced [^18F]4FN retention ([1]; pre-incubation with inhibitor prior to PMA): blocked

shelf-stability [2]: up to 4 h
clearance of the tracer ([3]; Balb/c mice, IP injection): renal dominant
hepatobiliary excretion ([3]; Balb/c mice, IP injection): partial hepatobiliary excretion
radioactivity in the liver ([3]; Balb/c mice, IP injection): low
blood metabolites ([4]; 5 min after injection): Metabolites are also present
blood metabolites ([4]; inflamed mice, 1.5 h post injection): more polar metabolites were observed
blood radio-HPLC, parent compound ([4]; non-inflamed and MPO knock-out mice, 1.5 h post injection): the parent compound could still be seen
stable in mouse plasma [5]: at least 1 h
SMILES: Oc1ccc([18F])c2ccccc12 [[^18F]4FN, 4-[^18F]fluoro-1-naphthol]
[^18F]4FN retention in activated cells vs vehicle (ratio) ([1]; PMA-activated differentiated HL-60 cells, normalized to vehicle): > 1
correlation of PET accumulation in inflamed ankles with L012 bioluminescence (LPS-induced arthritis; 1 hr, per animal basis): correlated strongly with L012; also recorded: directly correlated
imaging of inflammatory ROS burst by PET (LPS-induced arthritis; C57BL6/N mice, LPS i.a. left ankle, i.v. tracer): readily image the inflammatory ROS burst
difference between inflamed and non-inflamed ear in Nox2 KO mice versus WT (Nox2): substantially smaller compared to WT inflamed mice; also recorded: decreased contrast between PMA-treated and untreated ears
crossing of blood-brain barrier (radioactivity in the intracranial region) ([3]; Balb/c mice, IP injection): may not cross an intact blood-brain barrier
differentiation in uptake between inflamed right ear and vehicle treated left ear ([3]; Balb/c mice, IP injection, 11 min post-injection): no differentiation in uptake
uptake in inflamed ear ([3]; Balb/c mice, IP injection, 1 h post injection): > 2 % ID/cc
uptake-ratio between right-inflamed ear and left-control ear ([3]; IP injection, 11 min to 3 h post injection): increased over time
Cohen's d effect size, inflamed versus non-inflamed sites ([3]; IP or IV delivery, n=5): large Cohen's d effect sizes
contrast ratios inflamed versus non-inflamed ([3]; IP or IV delivery, n=5): strong contrast ratios
difference in SUV between inflamed and vehicle-treated ears ([3]; IP or IV delivery, n=5): statistically detectable differences in SUV; also recorded: statistically detectable differences in SUVaverage values
detection of PMA-inflamed ear versus vehicle ear by PET ([3]; IV injection): clearly visible
detection of PMA-inflamed ear versus vehicle ear by PET ([3]; IV injection, listed as [^18F]FN): readily detectable

clearance relative to other tracers ([3]; PMA model): cleared much faster
SMILES: O=C(O)C1OC(Oc2ccc([18F])c3ccccc23)C(O)C(O)C1O (centres unmarked) [[^18F]4FNG, [^18F]4-fluoronaphthalen-1-yl glucuronide]
detection of PMA-inflamed ear versus vehicle ear by PET ([3]; IV injection): small differentiation
retention in PMA-inflamed ear relative to other tracers ([3]; PMA model, 1 h post injection): retained much less than [^18F]FN and [^18F]FNS

clearance ([3]; IV injection, n=3): Rapid primarily renal clearance
defluorination (bone) ([3]; IV injection, n=3): minor defluorination
hepatobiliary excretion ([3]; IV injection, n=3): minor hepatobiliary excretion
SMILES: O=S(=O)(O)Oc1ccc([18F])c2ccccc12 [[^18F]4FNS, [^18F]4-fluoronaphthalen-1-yl sulfate]
visualization of 4T1 tumor by PET (4T1 tumor): clearly visible; also recorded: easily distinguishable
detection of PMA-inflamed ear versus vehicle ear by PET ([3]; IV injection): readily detected; also recorded: clearly visible; also recorded: readily detectable

SMILES: OC[C@H]1OC(O)[C@H]([18F])[C@@H](O)[C@@H]1O (some centres unmarked) [[^18F]FDG, reference compound]
detection of PMA-inflamed ear versus vehicle ear by PET ([3]; IV injection): no differentiation between the ears; also recorded: no FDG image asymmetry was observed

SMILES: O=C([O-])CC(O)(CC(=O)[O-])C(=O)[O-].[68Ga+3] [^68Ga-citrate, reference compound]
difference between inflamed and vehicle ears (perfusion control) ([3]; same animals, same time points): No difference between the ears
